Laboratory results published in patent US20070031511A1, “Method of treatment” (priority 2003, published 2007).
“Also recorded” adds a separate entry of the source.

Experiments:
IMGE-5 cells [1] = assay: Wound healing / cell migration assay; format: cell-based, mice
Protocol: The IMGE-5 cell line was established from the gastric mucosa of mice transgenic for a temperature-sensitive mutant of the SV40 large T antigen (Hollande et al, 2001). IMGE-5 cells were generally grown at 33° C. in DMEM containing 1 unit/ml γ-interferon, 10% FBS, 100 U/ml penicillin, and 100 μg/ml streptomycin (permissive conditions). For all experiments, cells were transferred to 39° C. in the same medium without […] (non-permissive conditions), where they display differentiated characteristics such as expression of functional adherens and tight junctions. All experiments have been performed on cells between passages 20 and 35.
In order to assess the effects of different stimuli on cell migration, wound healing experiments were performed as detailed elsewhere (Hollande et al, 1997). In brief, IMGE-5 cells were grown in 12-well plates in DMEM at 33° C. until they reached 80% confluence, then shifted to 39° C. and starved of serum for 24 h. The confluent monolayer was wounded using a 20 μl-pipette tip, and cells were then washed 3 times with phosphate-buffered saline (PBS: 2.7 mM KCl, 1.5 MM KH2PO4, 142 mM NaCl, and 10 mM Na2HPO4, pH 6.95) and treated with or without different compounds in DMEM with antibiotics. Morphology and migration of cells were observed and photographed immediately, and after treatment for 17 and 24 h. Wound width was measured at six different positions on the 24 h photographs, and averages calculated.

IMGE-5 cells [2] = assay: IMGE-5 cell proliferation, [3H]-thymidine incorporation; format: cell-based, mice
Protocol: In some cases cell proliferation was also measured by [^3H]-thymidine incorporation as described previously (Oiry et al., 2000). Briefly, IMGE-5 cells (10^5/well) were seeded in 24-well plates in medium containing 10% FBS and 1 unit/ml γ-interferon. On the next day cells were serum starved and shifted to 39° C. for 24 hr. Cells were then incubated with or without various compounds at 39° C. for 17 h in medium supplemented with 0.2% bovine serum albumin only. Cells were incubated with 0.5 μCi of [^3H] thymidine in the same medium at 39° C. for 4 h, washed twice with PBS (2.7 mM KCl, 142 mM NaCl, 1.5 mM KH2PO4, 10 mM Na2HPO4, pH 6.95) containing 0.2% bovine serum albumin and incubated at 4° C. for 30 min with 5% trichloroacetic acid. Finally cells were washed with 95% ethanol to remove unincorporated [^3H] thymidine, and lysed with 1 M NaOH. Lysates were transferred to counting vials and neutralized with 1M HCl. The radioactivity of each lysate was counted in a β-counter after the addition of 10 ml of Pico-fluor 40 solution (Packard, Meriden, Conn.).
In some experiments IMGE-5 cells were seeded in a 96-well plate at a density of 3-5×10^3 cells/well in.DMEM containing 10% FBS, and cultured at 33° C.. On the following day, the cells were serum-starved at 33° C. for 24 h. […] The cells were cultured at 39° C. for 24 h, and then harvested using a NUNC cell harvester. The amount of ^3H-thymidine incorporated through DNA synthesis was detected with a β-counter (Packard, Meriden, Conn.). […]

[3] = 1H NMR titration of Ggly fragments with ferric citrate; format: binding; details: pH 5.3, 278 K, read-out: Apparent Kd for ferric ions from shift of the Glu10 amide resonance
Protocol: The peptides LE5AYG, LE5A, E5AY and E5A (approximately 2 mM) were dissolved in H2O with 5 or 10% ^2H2O. […] Sequence-specific ^1H NMR resonance assignments were made from two-dimensional nuclear Overhauser enhancement spectroscopy (NOESY) and total correlation spectroscopy (TOCSY).
The apparent dissociation constants, Kd, for the complexes between ferric ions and the nonapeptide LE5AYG or the octapeptide LE5AY were obtained from the change in chemical shift of the Glu10 amide proton on addition of ferric citrate using the program Sigmaplot (Jandel Scientific, San Rafael, Calif.), by linear regression of the data to the equation 1/δ=Kd/Δ·1/[Fe^3+]+1/Δ where δ is the change in chemical shift, Δ is the maximum change in chemical shift, and [Fe^3+] is the concentration of added ferric ions. Measurement of Inositol Phosphate Production
In order to define the ligands involved in ferric ion binding, we next investigated the effect of ferric ions on the NMR spectra of the peptides. Ferric ion titration experiments were carried out by addition of 20, 50, or 200 mM ferric citrate solution to the peptides. The pH was maintained at 5.3 by addition of small amounts of NaO^2H or ^2HCl. Concentration, pH, temperature and use of ferrric citrate were in keeping with the conditions that were employed in earlier examples in order to prevent precipitation of peptide or ferric hydroxide. […]

IMGE-5 cells [4] = assay: IMGE-5 cell proliferation, MTT assay; format: cell-based, mice; details: DFO 1 μM
rectal mucosa = assay: Proliferation in the rectal mucosa of rectally defunctioned rats (metaphase-arrested cells); format: in vivo; details: DFO 400 mg/kg intraperitoneally thrice weekly, 4 weeks; Ggly 2.5 nmol/kg/hr
Protocol: DFO (400 mg/kg) was administered intraperitoneally thrice weekly, and bismuth ions were administered as colloidal bismuth subcitrate (135 mg/kg/12 hours) by oral gavage 5 days per week. After 4 weeks, the rats were injected with vincristine to arrest cycling cells in metaphase, and sacrificed 3 hrs later. Crypt heights in the rectal mucosa, and the number of metaphase arrested cells per crypt, were then determined microscopically.

hepatoma cell lines = details: Kicic et al, 2001; cited from earlier work
human hepatomas = details: Hann et al, 1992; cited from earlier work
CCK-2 receptor = biological target: T1, CCK-2 receptor (Homo sapiens, UniProt P32239); assay: Gamide-stimulated inositol phosphate production in COS-7 cells transfected with the CCK-2 receptor; format: cell-based; set-up: COS-7 cells transiently transfected with CCK-2 receptor cDNA; expressed in transfected cells; host or cells: COS-7; details: 1 μM DFO, 10 nM Gamide
T1 sequence (P32239 1-447): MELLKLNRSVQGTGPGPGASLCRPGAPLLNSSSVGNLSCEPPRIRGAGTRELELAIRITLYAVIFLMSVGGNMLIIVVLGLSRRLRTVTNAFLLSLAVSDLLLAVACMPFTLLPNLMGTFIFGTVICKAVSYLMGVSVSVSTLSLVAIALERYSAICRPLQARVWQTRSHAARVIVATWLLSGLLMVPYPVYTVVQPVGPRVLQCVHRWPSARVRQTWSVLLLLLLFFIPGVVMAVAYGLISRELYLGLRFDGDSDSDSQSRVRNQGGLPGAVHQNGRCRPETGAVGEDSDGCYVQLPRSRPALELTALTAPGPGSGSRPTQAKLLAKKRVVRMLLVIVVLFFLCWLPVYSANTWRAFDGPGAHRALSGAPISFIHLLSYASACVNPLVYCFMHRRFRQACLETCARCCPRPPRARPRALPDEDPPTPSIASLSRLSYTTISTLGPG
Protocol: Intracellular inositol phosphate production was determined as described previously (Qian et al, 1993). IMGE-5 cells (10^5 cells/ml) were plated in 24-multiwell culture plates in DMEM supplemented with 10% FBS, 200 IU/ml penicillin and 200 μg/ml streptomycin. 24 h later, cells were incubated with DMEM supplemented with antibiotics and Myo-[2-^3H]inositol (2.5 μCi/well) and shifted to 39° C. for 16 h. Cells were then washed with pre-warmed DMEM and incubated (20-30 minutes, 37° C.) with DMEM supplemented with 20 mM LiCl. Loaded cells were then washed in 1 ml of IP buffer (135 mM NaCl, 20 mM N-(2-hydroxyethyl)piperazine-N′-(2-ethanesulfonic acid), 2 mM CaCl2, 1.2 mM MgSO4, 1 mM ethylene glycol-bis(2-aminoethylether)-N,N,N′,N′-tetraacetic acid, 10 mM LiCl, and 0.5% bovine serum albumin, pH 7.45) and incubated with or without agonist in a final volume of 0.5 ml of IP buffer. After 1-h incubation at 37° C., the reaction was stopped by removing the incubation medium and adding 1 ml of a mixture of ethanol/HCl (2000:1; v/v). One ml of each aliquot was applied to a column containing 1.6 ml of a 1:2 (v/v) Dowex AG-1-X8 anion exchange resin in distilled water. The columns were washed with 4 ml of distilled water, followed by 4 ml of 40 mM HCOONH4, and inositol phosphates were eluted with 4 ml of 1 M HCOONH4. The radioactivity of each eluate was counted after addition of Complete phase combining system solution (Amersham, UK). For the positive control, IMGE-5 cells were incubated with a combination of 30 mM NaF and 10 μM AlCl3 under the same experimental conditions.
Gamide-stimulated inositol phosphate production was measured in COS-7 cells transfected with the CCK-2 receptor. […] Bismuth ions alone had no effect on inositol phosphate production in CCK-2 receptor-transfected COS-7 cells and HT29 cells, even at the highest concentration tested.
We then investigated the role of the individual glutamates in biological activity. The effects of the mutants GamideE7A and GamideE8,9A on inositol phosphate production in COS-7 cells transiently transfected with the CCK-2 receptor were compared.

Compound | Stimulation of cell migration compared with Ggly (IMGE-5 cells [1]; 100 nM peptide, 24 h) | Effect of DFO on peptide-stimulated migration (IMGE-5 cells [1]; 100 nM peptide, DFO in the medium) | S (%), maximum % stimulation (IMGE-5 cells [2]; IMGE cells, thymidine uptake, best fit at saturating concentration) [%] | Stimulation of proliferation of IMGE cells (IMGE-5 cells [2]; incorporation of [3H]-thymidine) | Effect of DFO on proliferation induced by the peptide (IMGE-5 cells [2]; peptide 100 nM, plus or minus 1 μM DFO, [3H]-thymidine incorporation) | Kd [3] [mM] | Effect on Ggly-stimulated IMGE-5 cell proliferation (IMGE-5 cells [4]; MTT and thymidine assays) | Reduction of Gamide-stimulated IMGE-5 cell proliferation (IMGE-5 cells [4]; MTT, 72 h) [%] | Effect on Ggly-stimulated IMGE-5 cell migration (IMGE-5 cells [1]; DFO 1 μM) | Effect on stimulation of proliferation of the rectal mucosa by Ggly (rectal mucosa) | Inhibition of proliferation of hepatoma cell lines in vitro (hepatoma cell lines) | Inhibition of human hepatomas (human hepatomas) | Effect on Gamide-stimulated inositol phosphate production (CCK-2 receptor)
LEEEEEAYG [LE5AYG] | more effective than Ggly | reversed by inclusion of DFO | 45.8 | significantly stimulated proliferation | completely blocked; also recorded: significantly blocked by DFO | 7 | – | – | – | – | – | – | –
CC(=O)N(O)CCCCCNC(=O)CCC(=O)N(O)CCCCCNC(=O)CCC(=O)N(O)CCCCCN [DFO, desferrioxamine] | – | – | – | – | – | – | completely blocked | 60 | completely blocked | significantly reduced | effective inhibitors | effective inhibitor | had no effect
